This is an account of results in publication PMC8746797, “Design, Synthesis, and Structure–Activity Relationship Study of Potent MAPK11 Inhibitors” (Molecules, 2021).

Usually IC50 stands for the midpoint of a concentration-inhibition curve. What is called melting point is the temperature of the solid-liquid transition.

One data set concerns the target MAPK11 (Homo sapiens, UniProt Q15759). Briefly: Enzyme assay against MAPK11 (mobility shift assay). The class given is biochemical. The settings on record: for IC50: mobility shift assay, mean ± SD of at least two independent determinations, read-out: MAPK11 Enzyme Inhibitory Activity IC50.
The next data set deals with MAPK14. The settings on record: cited from earlier work.

SMILES strings stand for the structures. Like-named read-outs stand apart in the source and are kept apart here.

Chain of MAPK11 (Q15759 whole entry): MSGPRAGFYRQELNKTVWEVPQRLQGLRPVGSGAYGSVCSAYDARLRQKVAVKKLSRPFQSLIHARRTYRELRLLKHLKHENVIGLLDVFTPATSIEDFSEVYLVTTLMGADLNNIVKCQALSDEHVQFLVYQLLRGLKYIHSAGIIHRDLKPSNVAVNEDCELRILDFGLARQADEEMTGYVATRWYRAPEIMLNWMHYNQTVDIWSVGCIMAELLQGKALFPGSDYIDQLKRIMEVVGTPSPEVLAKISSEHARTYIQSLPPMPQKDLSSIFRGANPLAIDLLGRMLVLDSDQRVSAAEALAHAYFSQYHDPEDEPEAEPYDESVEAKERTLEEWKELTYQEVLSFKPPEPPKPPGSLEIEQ
Protocol for MAPK11: The effect of the above synthesized inhibitors on MAPK11 kinase activity in vitro was assessed using mobility shift assay by ChemPartner. Following the kinase reaction, a part of the substrate was added to a phosphate group under the action of the kinase to yield a product. The substrate and the product have a difference of 3 charges, thereby allowing them to be separated and detected by capillary electrophoresis. […] Finally, the data was fitted to the XLFit Excel plug-in version 5.4.0.8 to calculate the IC50 value.

Turning to `O=C1c2ccc(Nc3ccc(F)cc3F)cc2CCc2ccc(OC[C@H](O)CO)cc21` [Compound 12a, reference compound], the IC50 on MAPK11 is 19.2 ± 0.9 nM; with MAPK14 it was 5 nM.

`Cc1cc(OC[C@H](O)CO)cc2c1CCc1cc(Nc3ccc(F)cc3F)ccc1C2=O` [Compound 12b] returned a melting point of 135.1 to 135.8 °C. Further, the IC50 on MAPK11 worked out at 14.5 ± 0.3 nM.

For `O=C1c2ccc(Nc3ccc(F)cc3F)cc2CCc2ccc(OC[C@@H](O)CO)cc21` [Compound 12c], at MAPK11, the IC50 turned out to be 32 ± 0.6 nM.

As to `O=C1c2ccc(Nc3ccc(F)cc3F)cc2CCc2ccc(OCCCO)cc21` [Compound 12d], the IC50 on MAPK11 was 25.9 ± 0.7 nM.

Turning to `Cc1cc(OCCCO)cc2c1CCc1cc(Nc3ccc(F)cc3F)ccc1C2=O` [Compound 12e], the melting point was 127.2 to 127.7 °C. Besides, at MAPK11, the IC50 was found to be 16.4 ± 0.6 nM.

Compound `COC(=O)CCCOc1ccc2c(c1)C(=O)c1ccc(Nc3ccc(F)cc3F)cc1CC2` [Compound 12f] displayed a melting point of 124.6 to 125 °C. The “decrease in potency against MAPK11 relative to 13a” value at MAPK11 (ester 12f vs carboxylic acid 13a) is “about 10 fold”. The IC50 at MAPK11 was determined as 61 ± 2.1 nM.

On to `O=C(O)CCCOc1ccc2c(c1)C(=O)c1ccc(Nc3ccc(F)cc3F)cc1CC2` [Compound 13a], for which the IC50 at MAPK11 came out at 6.4 ± 0.6 nM. Moreover, the “fold more potent than 12a (skepinone-L) against MAPK11” value at MAPK11 (ratio of IC50 values vs 12a) amounted to 3 fold.

For the compound `Cc1cc(OCCCC(=O)O)cc2c1CCc1cc(Nc3ccc(F)cc3F)ccc1C2=O` [Compound 13b, 4-((8-((2,4-difluorophenyl)amino)-1-methyl-5-oxo-10,11-dihydro-5H-dibenzo [a,d][7]annulen-3-yl)oxy)butanoic acid], the melting point fell in the range of 120.4 to 120.6 °C. The IC50 on MAPK11 amounted to 4.2 ± 0.1 nM.

Consider `O=C1c2ccc(Nc3ccc(F)cc3F)cc2CCc2ccc(OC3CC(C(=O)O)C3)cc21` (stereo not drawn) [Compound 13c], for which the melting point fell in the range of 145.3 to 145.9 °C. Further, at MAPK11, the IC50 was determined as 14.3 ± 0.6 nM.

`NC(=O)CCCOc1ccc2c(c1)C(=O)c1ccc(Nc3ccc(F)cc3F)cc1CC2` [Compound 14a]: the IC50 at MAPK11 worked out at 8.4 ± 0.1 nM.

For `O=S(=O)(c1ccc(Nc2ccc(F)cc2F)cc1)c1cccc(OC[C@H](O)CO)c1` [Compound 23b], the melting point lay within 135.9 to 136.6 °C. The IC50 at MAPK11 is above 10000 nM.

The compound `O=S(=O)(c1ccc(Nc2ccc(F)cc2F)cc1)c1cccc(OC[C@@H](O)CO)c1` [Compound 23c] came in with a melting point of 136.3 to 136.7 °C. Moreover, the IC50 at MAPK11 was above 10000 nM.

Regarding `COC(=O)CCCOc1cccc(S(=O)(=O)c2ccc(Nc3ccc(F)cc3F)cc2)c1` [Compound 23d], the melting point was 126.8 to 127.4 °C.

Take `O=C(O)CCCOc1cccc([S+]([O-])c2ccc(Nc3ccc(F)cc3F)cc2)c1` (stereo not drawn) [Compound 25]: at MAPK11, the “decrease in potency against MAPK11 compared to dibenzocycloheptanone compounds” value is given as “more than a hundred-fold decrease” and the IC50 came out at 2550 ± 682 nM.

`O=C(O)CCCOc1cccc(S(=O)(=O)c2ccc(Nc3ccc(F)cc3F)cc2)c1` [Compound 26] returned a melting point of 132.6 to 133.1 °C. In addition, at MAPK11, the IC50 was above 10000 nM.

Take `CC(C)(C)Cn1c(N)nc2ccc(-c3[nH]c(C(C)(C)C)nc3-c3ccc(F)cc3)nc21` [LY2228820]: the concentration for half-maximal inhibition (IC50) in the data set with MAPK14 (Figure 1) was 5.3 nM.

Take `Oc1ccc(-c2nc(-c3ccncc3)c(-c3ccc(F)cc3)[nH]2)cc1` [SB202190]: in the data set on MAPK14 (Figure 1), the IC50 was […].

Turning to `O=c1ncn2nc(Sc3ccc(F)cc3F)ccc2c1-c1c(Cl)cccc1Cl` [VX-745], the IC50 in the data set on MAPK14 (Figure 1) was […].
